In patent US20090156609A1, “TREATMENT OF POST-TRAUMATIC STRESS DISORDER WITH TETRAHYDROINDOLONE ARYLPIPERZAINE COMPOUNDS” (priority 2007, published 2009):
Where two headings read alike, the source gives them in different places.

Assays:
C-57 mice = experiment: Conditioned avoidance response (CAR) model; format: in vivo; conditions: models unwanted side effects
Description: The Condition Avoidance Responding (CAR, active avoidance) model is a measure of cognitive and attention impairment. It evaluates the disruption of avoidance (increased latency) without disruption of escape (extrapyramidal motor function).
The training of C-57 mice consists of 20 trials with variable inter-trial intervals (trained to 80% Avoidance Criteria). After a one-minute acclimation period, the house light and an acoustic 90 decibel tone (conditioned stimuli) are presented. A response (crossing to dark compartment) within 5 seconds ends the trial and trial is recorded as avoidance response (CAR). […] To avoid shock, animals learn to move from the lighted side of the − chamber to the dark side when the cue is presented (avoidance) or moved when the shock is administered (escape). Compounds that disrupt cognition in the CAR model can be excluded from candidate consideration.
(§1) The present compounds were tested in the conditioned avoidance response (CAR) model and in the Spontaneous Activity model described above.

Male C57 mice = experiment: PCP-induced disruption of prepulse inhibition (PPI) of the startle response; format: in vivo; conditions: for minimal effective dose: Mus musculus, 20 minutes prior to PCP 5 mg/kg IP, read-out: Effective Dose, Prepulse Inhibition Testing; for minimum effective dose, Prepulse Inhibition (PPI): reversal of PCP-induced disruption, route not given
Description: The phencyclidine (PCP)-induced disruption of pre-pulse inhibition (PPI) has been used to predict efficacy in cognitive impairment and other disorders. In this test, a weaker auditory prestimulus (prepulse) inhibits the reaction of an test organism to a subsequent strong startle stimulus (pulse). Normal PPI functioning in mammals is critical in filtering out irrelevant sensory information, an inhibitory process that is affected in patients with PTSD. A reduction of the cognitive/attention impairment produced in the PPI model can be used as an efficacy measure for compound candidate selection.
For testing of PPI, male C57 mice can be assigned to five dose groups of eight animals per group, and vehicle or test compound can then be administered orally (PO) or subcutaneously (SC) 20 minutes prior to intraperitoneal (IP) administration of vehicle or PCP (5 mg/kg). Ten minutes following PCP administration, the mice are placed into Hamilton-Kinder startle chambers and evaluation of pre-pulse inhibition procedure is performed. Following a five-minute acclimatization period with background white noise (65 decibels), mice were exposed to five different trial types. Trials were presented […] in a quasi-random order, with randomized 5 to 25 second inter-trial intervals. Trials were: stimulus only trial (120 decibel white noise, 50 ms stimulus); two different prepulse+pulse trials in which a 20 ms 5 decibel, or 10 decibel stimuli above a 65 decibel background preceded the 120 decibel pulse by 120 ms; a 10 decibel prepulse without a 120 decibel pulse; and a no stimulus trial, in which only the background noise was presented.
Compounds which are observed to reduce and/or reverse PCP-induced impairment can be selected as candidates for further evaluation. Such reduction is also indicative of memory enhancement, which is also a positive indicator for further development.
Male C57 mice were assigned to five dose groups of eight animals per group, and vehicle or a test compound was administered orally or subcutaneously 20 minutes prior to intraperitoneal administration of vehicle or PCP (5 mg/kg). Ten minutes following PCP administration, the mice were placed into Kinder Scientific startle chambers (Kinder Scientific, Poway, Calif.) and pre-pulse inhibition was evaluated. Following a five-minute acclimatization period with background white noise (65 dB), mice were exposed to five different trial types. Trials were presented in a quasi-random order, with randomized 5 to 25 second inter-trial intervals. The five different trials (presented 10 times each were): stimulus only trial (120 dB white noise, 50 ms stimulus); two different prepulse+pulse trials in which a 20 ms 5 dB or 10 dB stimulus above a 65 dB background preceded the 120 dB pulse by 120 ms; a 10 dB prepulse without a 120 dB pulse; and a no stimulus trial, in which only the background noise was presented.

mice = experiment: Spontaneous Activity model (locomotor activity); format: in vivo; conditions: models unwanted side effects
Description: Ambulatory and non-ambulatory activity can be used to test spontaneous and drug-induced motor activity. The test can be used to profile the potential for a drug to induce hyperactivity or sedation.
In this model, Kinder Scientific photobeam activity monitors are used to record the ambulatory and non-ambulatory motor activity. The monitors track the photobeam breaks made by the animal that are used to calculate the number of ambulatory and fine (non-ambulatory) motor movements. A drug-induced increase in activity can indicate the potential for an adverse event such as hyperactivity. A drug-induced decrease in response can indicate the potential for an adverse event such as sedation. Doses at which no significant change in activity are recorded, and more preferably at which no change in activity are recorded, can be selected for further evaluation.
as §1

patients = conditions: placebo 37 percent, cited from earlier work

SMILES	minimum effective dose, Conditioned Avoidance Response (C-57 mice) [mg/kg]	minimal effective dose (Male C57 mice; sc, subcutaneous) [mg/kg]	minimum effective dose, Prepulse Inhibition (PPI) (Male C57 mice) [mg/kg]	minimum effective dose, Locomotor Activity (mice) [mg/kg]	minimal effective dose (Male C57 mice; oral) [mg/kg]	patients who responded positively (patients; 20 mg paroxetine) [%]	patients who responded positively (patients; 40 mg paroxetine) [%]
O=C1CCCc2c1ccn2CCCCN1CCN(c2ccc(F)cc2)CC1 [Compound B, 1-{4-[4-(4-Fluorophenyl)piperazin-1-yl]butyl}-1,5,6,7-tetrahydroindol-4-one]	>3	1	1	3			
O=C1CCCc2c1ccn2CCCCN1CCN(c2ccc(Br)cc2)CC1 [Compound C, 1-{4-[4-(4-Bromophenyl)piperazin-1-yl]butyl}-1,5,6,7-tetrahydroindol-4-one]	>10	3	3	>10			
O=C1CCCc2c1ccn2CCCCN1CCN(c2cccc(C(F)(F)F)c2)CC1 [Compound D, 1-{4-[4-(3-Trifluoromethylphenyl)piperazin-1-yl]butyl}-1,5,6,7-tetrahydroindol-4-one]	3	0.3	0.3	3	1		
O=C1CCCc2c1ccn2CCN1CCN(c2cccc(C(F)(F)F)c2)CC1 [Compound E, 1-{2-[4-(3-Trifluoromethylphenyl)piperazin-1-yl]ethyl}-1,5,6,7-tetrahydroindol-4-one]	>10		3	>10			
O=C1CCCc2c1ccn2CCCN1CCN(c2cccc(Cl)c2)CC1 [Compound F, 1-{3-[4-(3-Chlorophenyl)piperazin-1-yl]propyl}-1,5,6,7-tetrahydroindol-4-one]	>10		3	>3			
O=C1CCCc2c1ccn2CCCN1CCN(c2cccc(C(F)(F)F)c2)CC1 [Compound G, 1-{3-[4-(3-Trifluoromethylphenyl)piperazin-1-yl]propyl}-1,5,6,7-tetrahydroindol-4-one]	>10		3	>10			
O=C1CCCc2c1ccn2CCCCN1CCN(c2ccc(Cl)c(Cl)c2)CC1 [Compound H, 1-{4-[4-(3,4-dichlorophenyl)piperazin-1-yl]butyl}-1,5,6,7-tetrahydroindol-4-one]		1			6		
O=C1CCCc2c1ccn2CCCCN1CCN(c2ccc(F)c(Cl)c2)CC1 [Compound I, 1-{4-[4-(3-Chloro-4-fluorophenyl)piperazin-1-yl]butyl}-1,5,6,7-tetrahydroindol-4-one]		1					
O=C1CCCc2c1ccn2CCCCN1CCN(c2ccc(Cl)cc2Cl)CC1 [Compound J, 1-{4-[4-(2,4-Dichlorophenyl)piperazin-1-yl]butyl}-1,5,6,7-tetrahydroindol-4-one]		10					
O=C1CCCc2c1ccn2CCCN1CCN(c2ccc(Cl)c(Cl)c2)CC1 [Compound K, 1-{3-[4-(3,4-Dichlorophenyl)piperazin-1-yl]propyl}-1,5,6,7-tetrahydroindol-4-one]		10					
Fc1ccc([C@@H]2CCNC[C@H]2COc2ccc3c(c2)OCO3)cc1 [paroxetine, Paroxetine]						62	54
